Active and inactive are the calls of the source.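 How the source made its calls: active means compounds lowering cell ATP signal with a fitted AC50 at or below twice their top tested dose; inconclusive means flat curve between 30% and 70% loss, or poor fit; inactive means the rest.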
test system: not listed separately; assay: A549 cell cytotoxicity, dose response, cytotoxicity control, plate reader, dry powder, set 11 (AID 743413); conditions: A549 viability, CellTiter-Glo ATP luminescence, 72 h; at 12 µM (top of the series)

Row | SMILES | activity change, negative = cytotoxicity
1 | COCCN(Cc1ccco1)C(=O)CSc1c2c(nc3cc(Cl)ccc13)CCCC2 | -3.68% (inactive)
2 | COc1cc(CNCCCN2CCOCC2)ccc1OCC(=O)Nc1cccc(C(F)(F)F)c1 | 7.4% (inactive)

same assay, conditions: A549 viability, CellTiter-Glo ATP luminescence, 72 h; at 26 µM (top of the series)

Row | SMILES | activity change, negative = cytotoxicity
3 | NC(=O)C1CCN(C(=O)c2ccc(OCC(=O)Nc3cccc(C(F)(F)F)c3)cc2)CC1 | 8.43% (inactive)
4 | Cn1c(=O)cc(SCC(=O)NCc2ccco2)c2ccccc21 | 5.32% (inactive)
5 | CCN(CC)C(=O)CSc1c2c(nc3ccc(Cl)cc13)CCCC2 | -10.9% (inactive)
6 | O=C(CSc1ccc2ccccc2n1)NCc1ccco1 | -6.75% (inactive)
7 | O=C(COc1ccc(C(=O)N2CCC2)cc1)Nc1cccc(C(F)(F)F)c1 | 2.9% (inactive)
8 | O=C(O)CSc1c2c(nc3cc(C(=O)NCc4cccs4)ccc13)CCCC2 | -2.24% (inactive)
9 | CN(C)c1ccc(NC(=O)COc2ccccc2C(=O)N2CCOCC2)cc1 | -1.46% (inactive)
10 | COc1ccc(OCCNC(=O)c2ccccc2OCC(=O)Nc2ccc(NC(C)=O)cc2)cc1 | -14.7% (inactive)
11 | CCCCOc1ccc(NC(=O)COc2ccccc2C(=O)NCCOc2ccccc2)cc1 | -9.94% (inactive)
12 | CN(C(=O)COc1ccccc1C(N)=O)c1ccccc1 | -1.13% (inactive)
13 | O=C(COc1ccc(C(=O)NCC2CCCO2)cc1)Nc1cccc(C(F)(F)F)c1 (stereo unspecified) | 1.08% (inactive)
14 | COc1cc(C(=O)NCCCN(C)C)ccc1OCC(=O)Nc1cccc(C(F)(F)F)c1 | -6.69% (inactive)
15 | Cc1ccc(NC(=O)COc2ccccc2C(=O)NCCN(C)C)cc1 | -4.77% (inactive)
16 | CN(CCOc1ccccc1)C(=O)c1ccc(OCC(=O)Nc2cccc(C(F)(F)F)c2)cc1 | 0.912% (inactive)
17 | CCOC(=O)C1CCN(C(=O)c2ccc(OCC(=O)Nc3ccc(OCC)cc3)c(OC)c2)CC1 | 5.86% (inactive)
18 | CN(C(=O)COc1ccc(Cl)cc1C(N)=O)c1ccccc1 | 2.07% (inactive)
19 | O=C(CSc1c2c(nc3ccc(Cl)cc13)CCCC2)NC1CCCC1 | -25.2% (inactive)
20 | O=C(COc1ccccc1C(=O)NCc1ccccc1)Nc1ccccc1 | -5.99% (inactive)

Row | SMILES | activity change, negative = cytotoxicity
21 | Cc1ccc2nc(Cl)cc(SCC(=O)NCc3ccco3)c2c1 | -7.2% (inactive)
22 | CCOC(=O)N1CCC(NC(=O)CSc2c3c(nc4ccc(Cl)cc24)CCCC3)CC1 | -13.1% (inactive)
23 | O=C(CSc1c2c(nc3ccc(Cl)cc13)CCCC2)N1CCNC1=O | -13.8% (inactive)
24 | Cn1cc(SCC(=O)NCc2ccco2)c2ccccc21 | -0.441% (inactive)
25 | COC(=O)CCCN(C)C(=O)c1ccc(OCC(=O)Nc2cccc(OC)c2)cc1 | -0.651% (inactive)
26 | CN(CCNC(=O)CSc1c2c(nc3ccc(Cl)cc13)CCCC2)Cc1ccccc1 | -8.03% (inactive)
27 | CC(Sc1c2c(nc3ccc(Cl)cc13)CCCC2)C(=O)NCc1ccco1 (stereo unspecified) | -8.08% (inactive)
28 | COc1ccc(N(Cc2cccs2)C(=O)COc2ccccc2C(=O)Nc2ccccc2)cc1 | -14% (inactive)
29 | O=C(COc1ccc(C(=O)N2CCN(C(=O)C3CC3)CC2)cc1)Nc1cccc(C(F)(F)F)c1 | -1.09% (inactive)
30 | O=C(COc1ccccc1C(=O)NCCOc1ccc(Cl)cc1)Nc1cccc(Cl)c1 | -15.3% (inactive)
31 | O=C(CSc1cccc2cccnc12)NCc1ccco1 | -1.12% (inactive)
32 | CN(C(=O)COc1ccccc1C(=O)Nc1ccccc1)c1ccccc1 | -12% (inactive)
33 | CCOC(=O)C1CCN(C(=O)c2ccc(OCC(=O)N3CCOCC3)c(OC)c2)CC1 | -3.29% (inactive)
34 | O=C(COc1ccc(C(=O)NC2CCCCC2)cc1)Nc1cccc(C(F)(F)F)c1 | -0.017% (inactive)
35 | CC1(C)CC(NC(=O)c2ccc(OCC(=O)Nc3cccc(C(F)(F)F)c3)cc2)CC(C)(C)N1 | -14.3% (inactive)
36 | O=C(CSc1c2c(nc3ccc(Cl)cc13)CCCC2)NCC1(c2ccccc2)CCCC1 | -1.8% (inactive)
37 | CCOc1ccc(NC(=O)COc2ccc(C(=O)N3CCC(C(N)=O)CC3)cc2OC)cc1 | -3.38% (inactive)

test system: A549 viability, CellTiter-Glo ATP luminescence, 72 h; assay: as above; conditions: not given

Row | SMILES | AC50
38 | CCN1CCCC1CNC(=O)CSc1c2c(nc3ccc(Cl)cc13)CCCC2 (stereo unspecified) | 16.2 µM
39 | O=C(CSc1c2c(nc3cc(Cl)ccc13)CCCC2)N(Cc1ccco1)C1CCCC1 | > 52 µM (inactive)
40 | O=C(CSc1c2c(nc3ccc(Cl)cc13)CCCC2)NC1CC1 | > 52 µM (inactive)
41 | COc1ccc(NC(=O)CSc2c3c(nc4ccc(Cl)cc24)CCCC3)cc1 | > 52 µM (inactive)
42 | O=C(CSc1c2c(nc3ccc(Cl)cc13)CCCC2)N1CCCCC1 | > 52 µM (inactive)
43 | O=C(CSc1c2c(nc3ccc(Cl)cc13)CCCC2)N1CCC(N2CCCCC2)CC1 | 26.6 µM
44 | Cc1ccc(CNC(=O)CSc2c3c(nc4ccc(Cl)cc24)CCCC3)cc1 | > 52 µM (inactive)
45 | O=C(CSc1c2c(nc3ccc(Cl)cc13)CCCC2)NCc1cccs1 | > 52 µM (inactive)
46 | COc1ccc(CNC(=O)CSc2c3c(nc4ccc(Cl)cc24)CCCC3)cc1 | > 52 µM (inactive)
47 | O=C(CSc1c2c(nc3ccc(Cl)cc13)CCCC2)NCCCc1ccccc1 | > 52 µM (inactive)
48 | O=C(CSc1c2c(nc3ccc(Cl)cc13)CCCC2)NCCN1CCN(Cc2ccccc2)CC1 | 26.7 µM
49 | O=C(CSc1c2c(nc3ccc(Cl)cc13)CCCC2)NCc1ccc2c(c1)OCO2 | > 52 µM (inactive)
50 | O=C(CSc1c2c(nc3ccc(Cl)cc13)CCCC2)Nc1ccccc1 | > 52 µM (inactive)
51 | Cc1cccc(CCNC(=O)CSc2c3c(nc4ccc(Cl)cc24)CCCC3)c1 | > 52 µM (inactive)
